In test [1] the test system is MV4-11. The experiment in a line: Cellular MV4-11 viability assay (CellTiter-Glo, 72 hours). Conditions: Homo sapiens; MV4-11 cells. Format: cell-based. The essentials:
(§1)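 Cells in RPMI-1640 with 10% FBS were seeded (MV4-11 1×10^4, OVCAR-3 5×10^3, A2780 1×10^3 cells/well) and treated 24 h later with compound at 0.0015–10 uM, final DMSO under 0.1%. After 72 h at 37 °C, viability was read by CellTiter-Glo luminescence, in duplicate.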

For test [2], the target named is T1, CDK5/p25 (Homo sapiens, UniProt Q00535).
T1 construct: purchased Invitrogen PR8543B
T1 sequence (Q00535 whole entry): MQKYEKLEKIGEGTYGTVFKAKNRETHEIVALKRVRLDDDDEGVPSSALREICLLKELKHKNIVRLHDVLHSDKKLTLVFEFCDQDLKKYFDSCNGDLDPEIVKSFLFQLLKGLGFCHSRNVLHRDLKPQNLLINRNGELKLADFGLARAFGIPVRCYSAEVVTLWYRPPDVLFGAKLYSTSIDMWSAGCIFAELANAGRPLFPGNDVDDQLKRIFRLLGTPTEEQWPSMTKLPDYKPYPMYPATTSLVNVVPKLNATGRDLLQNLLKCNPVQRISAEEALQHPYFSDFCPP
T1 sequence (Q15078 99-307 partner limits assumed): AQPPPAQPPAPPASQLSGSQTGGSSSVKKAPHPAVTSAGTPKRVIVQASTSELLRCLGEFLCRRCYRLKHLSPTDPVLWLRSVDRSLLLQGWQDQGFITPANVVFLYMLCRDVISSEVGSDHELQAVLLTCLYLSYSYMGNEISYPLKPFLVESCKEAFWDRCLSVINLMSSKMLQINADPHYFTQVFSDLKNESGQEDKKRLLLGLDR
The test can be described thus: Enzymatic assay for CDK5 (LANCE Ultra kinase assay, FRET based). Type of test: biochemical. Conditions: ATP at Km. The essentials:
(§2)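 Compounds tested as 8 doses in 4-fold steps against CDK2/Cyclin A ([…]) or CDK5/p25 ([…]), with ATP at its Km and 68 nM ULight-MBP substrate. After 60 min at 23° C., EDTA plus Eu-labelled anti-phospho-MBP added; TR-FRET (615/665 nm) read after another 60 min.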

The target in test [3] is T2, CDK2/Cyclin A (Homo sapiens, UniProt P24941).
T2 construct: purchased Invitrogen PV6290
The experiment in a line: Enzymatic assay for CDK2 (LANCE Ultra kinase assay, FRET based). As to conditions: ATP at Km. Format: biochemical. The essentials:
as §2
(Time-resolved FRET reads energy transfer from a long-lived donor to a nearby acceptor.)

In test [4] the test system is OVCAR-3. The test can be described thus: OVCAR-3 viability assay (CellTiter-Glo, 72 hours). As to conditions: Homo sapiens; OVCAR-3 cells. Type of test: cell-based. The essentials:
as §1

Test [5] addresses T3, CDK1/Cyclin B (Homo sapiens, UniProt P06493).
T3 construct: purchased Invitrogen PR4768C
The test can be described thus: Enzymatic assay for CDK1 (LANCE Ultra kinase assay, FRET based). Type of test: biochemical. As to conditions: ATP at Km; read-out: CDK1 enzymatic activity IC50. The essentials:
(§3)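 TR-FRET (LANCE Ultra) kinase assays with a ULight-labelled peptide substrate and a Europium-labelled anti-phospho antibody. ATP was set at its Km for each kinase. Inhibition was measured on purified CDK/cyclin complexes: CDK7/Cyclin H/MNAT1 and CDK1/Cyclin B.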

The subject of test [6] is A2780. The experiment in a line: A2780 viability assay (CellTiter-Glo, 72 hours). Format: cell-based. Conditions: Homo sapiens; A2780 cells. The essentials: as §1
In test [7] the target is T4, CDK7/Cyclin H/MNAT1 (Homo sapiens, UniProt P50613).
T4 construct: purchased Invitrogen PR6749B
T4 sequence (P50613 whole entry): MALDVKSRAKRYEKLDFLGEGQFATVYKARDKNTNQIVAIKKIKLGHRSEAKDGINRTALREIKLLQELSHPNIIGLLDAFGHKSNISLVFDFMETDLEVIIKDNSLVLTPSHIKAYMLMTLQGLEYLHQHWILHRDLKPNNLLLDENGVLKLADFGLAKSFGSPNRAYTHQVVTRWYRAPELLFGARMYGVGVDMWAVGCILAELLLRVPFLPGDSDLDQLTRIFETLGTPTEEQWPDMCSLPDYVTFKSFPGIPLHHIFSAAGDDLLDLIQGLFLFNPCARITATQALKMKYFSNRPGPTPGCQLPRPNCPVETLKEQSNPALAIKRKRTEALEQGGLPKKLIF
T4 sequence (P51946 whole entry partner): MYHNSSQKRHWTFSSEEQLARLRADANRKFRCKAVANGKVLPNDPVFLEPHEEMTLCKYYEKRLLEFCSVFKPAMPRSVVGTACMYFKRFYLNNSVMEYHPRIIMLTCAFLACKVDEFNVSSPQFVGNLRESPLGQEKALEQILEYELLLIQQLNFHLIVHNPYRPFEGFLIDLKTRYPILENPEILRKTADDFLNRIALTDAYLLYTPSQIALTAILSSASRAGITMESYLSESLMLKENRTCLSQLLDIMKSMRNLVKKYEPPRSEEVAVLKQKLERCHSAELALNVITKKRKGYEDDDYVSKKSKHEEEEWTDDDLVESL
T4 sequence (P51948 whole entry partner): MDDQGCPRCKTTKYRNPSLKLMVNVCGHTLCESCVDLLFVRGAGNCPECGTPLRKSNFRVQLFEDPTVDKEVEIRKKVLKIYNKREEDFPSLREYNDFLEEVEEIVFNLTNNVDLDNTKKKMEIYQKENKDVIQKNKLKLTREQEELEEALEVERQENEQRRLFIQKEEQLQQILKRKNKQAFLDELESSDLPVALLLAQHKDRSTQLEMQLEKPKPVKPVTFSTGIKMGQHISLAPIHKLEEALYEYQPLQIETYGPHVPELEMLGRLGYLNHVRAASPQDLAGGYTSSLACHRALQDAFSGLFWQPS
The test can be described thus: Enzymatic assay for CDK7 (LANCE Ultra kinase assay, FRET based). Format: biochemical. Conditions: for IC50: ATP at Km. The essentials:
as §3

As a reminder, the IC50 is the concentration needed to halve the response being measured.

T3 sequence (P06493 whole entry): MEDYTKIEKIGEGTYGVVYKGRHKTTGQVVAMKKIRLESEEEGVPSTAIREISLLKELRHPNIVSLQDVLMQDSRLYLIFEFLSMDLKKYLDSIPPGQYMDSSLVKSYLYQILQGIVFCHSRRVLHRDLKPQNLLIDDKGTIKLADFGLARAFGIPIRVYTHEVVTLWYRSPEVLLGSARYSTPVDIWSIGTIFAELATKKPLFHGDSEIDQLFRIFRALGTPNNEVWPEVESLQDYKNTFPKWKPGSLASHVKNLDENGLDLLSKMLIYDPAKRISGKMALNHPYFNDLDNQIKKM
T3 sequence (P14635 whole entry partner): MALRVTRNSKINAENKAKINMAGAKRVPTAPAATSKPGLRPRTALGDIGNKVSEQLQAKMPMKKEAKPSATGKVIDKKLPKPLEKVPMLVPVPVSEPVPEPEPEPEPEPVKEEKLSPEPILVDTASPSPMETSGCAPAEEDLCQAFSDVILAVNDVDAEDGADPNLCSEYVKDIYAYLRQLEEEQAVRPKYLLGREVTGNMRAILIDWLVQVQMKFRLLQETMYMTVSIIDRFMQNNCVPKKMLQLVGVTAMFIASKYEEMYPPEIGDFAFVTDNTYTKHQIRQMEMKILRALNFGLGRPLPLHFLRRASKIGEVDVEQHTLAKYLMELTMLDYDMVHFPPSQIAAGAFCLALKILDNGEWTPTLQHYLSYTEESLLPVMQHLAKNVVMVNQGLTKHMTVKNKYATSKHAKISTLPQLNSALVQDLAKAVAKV

In the case of `COC1CCC(Nc2nc(NCc3ccccc3-c3nccc4cc(NC(=O)/C=C/CN(C)C)ccc34)n3ncc(C(C)C)c3n2)CC1` (stereo not shown) [Compound 44], the IC50 was less than 1000 nM in test [1]; greater than 1000 nM in test [2]; greater than 1000 nM in test [3]; less than 1000 nM in test [4]; greater than 1000 nM in test [5]; less than 1000 nM in test [6]. In test [7], this compound yielded an IC50 of less than 100 nM. Also, the “CDK1/CDK7: Selectivity of CDK7 inhibition over CDK1 inhibition” value in test [7] is “A (A indicates [fold] > 500)”. Besides, the “CDK2/CDK7: Selectivity of CDK7 inhibition over CDK2 inhibition” value in test [7] is “A (A indicates [fold] > 500)”. For the same compound, in test [7], the “CDK5/CDK7: Selectivity of CDK7 inhibition over CDK5 inhibition” value is “A (A indicates [fold] > 500)”.
Turning to `CC(C)c1cnn2c(NCc3ccccc3-c3nccc4cc(NC(=O)/C=C/CN(C)CC(N)=O)ccc34)nc(N3CCC(N)CC3)nc12` [Compound 58], the IC50 was less than 1000 nM in test [1]; greater than 1000 nM in test [2]; greater than 1000 nM in test [3]; 1000 to 10000 nM in test [4]; greater than 1000 nM in test [5]; 1000 to 10000 nM in test [6]. Moreover, the IC50 in test [7] was less than 100 nM. In addition, in test [7], the “CDK1/CDK7: Selectivity of CDK7 inhibition over CDK1 inhibition” value was “A (A indicates [fold] > 500)”. Also, the “CDK2/CDK7: Selectivity of CDK7 inhibition over CDK2 inhibition” value in test [7] is “A (A indicates [fold] > 500)”. For the same compound, in test [7], the “CDK5/CDK7: Selectivity of CDK7 inhibition over CDK5 inhibition” value is “A (A indicates [fold] > 500)”.
Regarding `CC(C)c1cnn2c(NCc3ccccc3-c3nccc4cc(NC(=O)/C=C/CN(C)C)ccc34)nc(NCCC(C)(C)O)nc12` [Compound 35], the IC50 was less than 1000 nM in test [1]; greater than 1000 nM in test [2]; greater than 1000 nM in test [3]; less than 1000 nM in test [4]; greater than 1000 nM in test [5]; less than 1000 nM in test [6]. Moreover, the IC50 in test [7] is less than 100 nM. Also, the “CDK1/CDK7: Selectivity of CDK7 inhibition over CDK1 inhibition” value in test [7] is “B (B indicates 50 < [fold] ≤ 500)”. Moreover, the “CDK2/CDK7: Selectivity of CDK7 inhibition over CDK2 inhibition” value in test [7] is “B (B indicates 50 < [fold] ≤ 500)”. Besides, the “CDK5/CDK7: Selectivity of CDK7 inhibition over CDK5 inhibition” value in test [7] is “B (B indicates 50 < [fold] ≤ 500)”.
Turning to `CC(C)c1cnn2c(NCc3ccccc3-c3nccc4cc(NC(=O)/C=C/CN(C)C)ccc34)nc(N3CCOCC3)nc12` [Compound 42], the IC50 in test [1] is less than 1000 nM; in test [2] it was greater than 1000 nM; in test [3], greater than 1000 nM; in test [4], less than 1000 nM; in test [5], greater than 1000 nM; in test [6], less than 1000 nM. This compound also had an IC50 in test [7] of 100 to 1000 nM. For the same compound, the “CDK1/CDK7: Selectivity of CDK7 inhibition over CDK1 inhibition” value in test [7] is “B (B indicates 50 < [fold] ≤ 500)”. The “CDK2/CDK7: Selectivity of CDK7 inhibition over CDK2 inhibition” value in test [7] was “B (B indicates 50 < [fold] ≤ 500)”. The “CDK5/CDK7: Selectivity of CDK7 inhibition over CDK5 inhibition” value in test [7] was “B (B indicates 50 < [fold] ≤ 500)”.
For the compound `C/C=C/C(=O)Nc1ccc2c(-c3ccccc3CNc3nc(NC[C@H]4CNC[C@@H]4O)nc4c(C(C)C)cnn34)nccc2c1` [Compound 77], the IC50 in test [1] is less than 1000 nM; in test [2] it was greater than 1000 nM; in test [3], greater than 1000 nM; in test [4] it was 1000 to 10000 nM; in test [5], greater than 1000 nM; in test [6], 1000 to 10000 nM. In test [7], the IC50 is less than 100 nM. Also, in test [7], the “CDK1/CDK7: Selectivity of CDK7 inhibition over CDK1 inhibition” value was “A (A indicates [fold] > 500)”. Further, the “CDK2/CDK7: Selectivity of CDK7 inhibition over CDK2 inhibition” value in test [7] is “A (A indicates [fold] > 500)”. Besides, the “CDK5/CDK7: Selectivity of CDK7 inhibition over CDK5 inhibition” value in test [7] was “A (A indicates [fold] > 500)”.
Turning to `CC(C)c1cnn2c(NCc3ccccc3-c3nccc4cc(NC(=O)/C=C/CN(C)C)ccc34)nc(N3CCC(NC(=O)OC(C)(C)C)CC3)nc12` [Compound 75], the IC50 in test [1] is less than 1000 nM; in test [2] it was greater than 1000 nM; in test [3], greater than 1000 nM; in test [4], less than 1000 nM; in test [5], greater than 1000 nM; in test [6] it was less than 1000 nM. This compound also registered an IC50 in test [7] of 100 to 1000 nM. Also, in test [7], the “CDK1/CDK7: Selectivity of CDK7 inhibition over CDK1 inhibition” value is “B (B indicates 50 < [fold] ≤ 500)”. Besides, in test [7], the “CDK2/CDK7: Selectivity of CDK7 inhibition over CDK2 inhibition” value was “B (B indicates 50 < [fold] ≤ 500)”. In addition, the “CDK5/CDK7: Selectivity of CDK7 inhibition over CDK5 inhibition” value in test [7] was “B (B indicates 50 < [fold] ≤ 500)”.
Turning to `CC(C)c1cnn2c(NCc3ccccc3-c3nccc4cc(NC(=O)/C=C/CN(C)C)ccc34)nc(N3CCC(CO)CC3)nc12` [Compound 29], the IC50 is less than 1000 nM in test [1]; greater than 1000 nM in test [2]; greater than 1000 nM in test [3]; less than 1000 nM in test [4]; greater than 1000 nM in test [5]; less than 1000 nM in test [6]. The compound also returned an IC50 in test [7] of 100 to 1000 nM. Also, the “CDK1/CDK7: Selectivity of CDK7 inhibition over CDK1 inhibition” value in test [7] is “B (B indicates 50 < [fold] ≤ 500)”. In test [7], the “CDK2/CDK7: Selectivity of CDK7 inhibition over CDK2 inhibition” value is “B (B indicates 50 < [fold] ≤ 500)”. The “CDK5/CDK7: Selectivity of CDK7 inhibition over CDK5 inhibition” value in test [7] was “B (B indicates 50 < [fold] ≤ 500)”.
